molecular target: ACC1 (Homo sapiens (Human), UniProt Q13085); experiment: In vitro ACC inhibition assay (ADP-Glo), ACC1; type: biochemical; conditions: not given
Protocol: (§1) Compounds of the present invention were evaluated in an in vitro ACC inhibition assay as described by Harwood, et al, 2003, the entirety of which is incorporated herein by reference.
(§2) In Vitro Acetyl-CoA Carboxylase (ACC) Inhibition Assay
(§3) An exemplary procedure for the in vitro ACC inhibition assay, which can be used to determine the inhibitory action of compounds of the invention toward either ACC1 or ACC2, follows. The ADP-Glo™ Kinase Assay kit from Promega was used. The ADP-Glo™ Kinase Assay is a luminescent ADP detection assay to measure enzymatic activity by quantifying the amount of ADP produced during an enzyme reaction. The assay is performed in two steps; first, after the enzyme reaction, an equal volume of ADP-Glo™ Reagent is added to terminate the reaction and deplete the remaining ATP. Second, the Kinase Detection Reagent is added to simultaneously convert ADP to ATP and allow the newly synthesized ATP to be measured using a luciferase/luciferin reaction. Luminescence can be correlated to ADP concentrations by using an ATP-to-ADP conversion curve. The detailed procedure is as follows. 50 μL of the compound being tested (600 uM in DMSO) was added to a 384-well dilution plate. The compound was diluted 1:3 in succession in DMSO for each row for 11 wells. 0.5 μL ACC2 working solution was added to 384-well white Optiplate assay plate. 0.5 μL diluted compound solution in each column from step 2 to assay plate, each row containing 2 replicates. […] The plates were incubated at room temperature for 15 minutes. 5 μL substrate working solution was added to each well to initiate reaction. Final ACC2 reaction concentrations consist of: 5 nM ACC2, 20 μM ATP, 20 μM acetyl-CoA, 12 mM NaHCO3, 0.01% Brij35, 2 mM DTT, 5% DMSO, test compound concentrations: 30 μM, 10 μM, 3.33 μM, 1.11 μM, 0.37 μM, 0.123 μM, 0.0411 μM, 0.0137 μM, 0.00457 μM, 0.00152 μM, and 0.00051 μM. Plates were incubated at room temperature for 60 minutes. 10 μL ADP glo reagent was added. Plates were incubated at room temperature for 40 minutes. 20 μL kinase detection reagent was added. Plates were incubated at room temperature for 40 minutes, then read on a Perkin Elmer EnVision 2104 plate reader for luminescence as Relative Light Units (RLU).
(§4) Data for each concentration, as well as the positive and negative controls were averaged, and the standard deviation calculated. Percent inhibition was calculated by the formula: 100×(average negative control-compound)/(average negative control-average positive control). The IC50 for each compound was calculated by fitting the data with a non-linear regress ion equation: Y=Bottom+(Top−Bottom)/(1+10((Log IC50−X* HillSlope)), where X is the log of compound concentration and Y is percent inhibition.

SMILES	IC50 [µM]
COc1ccccc1[C@H](Cn1c(=O)n(C2(C(=O)O)CC2)c(=O)c2c(C)c(Br)sc21)OC1CCOCC1 [Example 29]	0.001 to 0.01
COc1ccccc1[C@H](Cn1c(=O)n(C2(C(=O)O)CCC2)c(=O)c2c(C)c(Br)sc21)OC1CCOCC1 [Example 31]	0.001 to 0.01
COc1ccccc1[C@H](Cn1c(=O)n(C2(C(=O)O)CC2)c(=O)c2c(C)c(-c3ncco3)sc21)OC1CCOCC1 [Example 33]	< 0.001
COc1ccccc1C(Cn1c(=O)n(C2(C(=O)O)CCCC2)c(=O)c2c(C)c(-c3ncco3)sc21)OC1CCOCC1 (stereo not drawn) [Example 36]	0.001 to 0.01
COc1ccccc1C(Cn1c(=O)n(C2(C(=O)O)CCC2)c(=O)c2c(C)c(-c3ncco3)sc21)OC1CCOCC1 (stereo not drawn) [Example 37]	< 0.001
COc1ccccc1[C@H](Cn1c(=O)n(C(C)(C)C(=O)O)c(=O)c2c(C)c(-c3ncco3)sc21)OC1CCOCC1 [Example 38]	< 0.001

molecular target: ACC2 (Homo sapiens (Human), UniProt O00763); experiment: In vitro ACC inhibition assay (ADP-Glo), ACC2; type: biochemical; conditions: 5 nM ACC2, 20 μM ATP, 20 μM acetyl-CoA; read-out: IC50 (μM) ACC2
Protocol: as §1, §2, §3, §4

Chain of ACC2 (O00763 whole entry, species assumed): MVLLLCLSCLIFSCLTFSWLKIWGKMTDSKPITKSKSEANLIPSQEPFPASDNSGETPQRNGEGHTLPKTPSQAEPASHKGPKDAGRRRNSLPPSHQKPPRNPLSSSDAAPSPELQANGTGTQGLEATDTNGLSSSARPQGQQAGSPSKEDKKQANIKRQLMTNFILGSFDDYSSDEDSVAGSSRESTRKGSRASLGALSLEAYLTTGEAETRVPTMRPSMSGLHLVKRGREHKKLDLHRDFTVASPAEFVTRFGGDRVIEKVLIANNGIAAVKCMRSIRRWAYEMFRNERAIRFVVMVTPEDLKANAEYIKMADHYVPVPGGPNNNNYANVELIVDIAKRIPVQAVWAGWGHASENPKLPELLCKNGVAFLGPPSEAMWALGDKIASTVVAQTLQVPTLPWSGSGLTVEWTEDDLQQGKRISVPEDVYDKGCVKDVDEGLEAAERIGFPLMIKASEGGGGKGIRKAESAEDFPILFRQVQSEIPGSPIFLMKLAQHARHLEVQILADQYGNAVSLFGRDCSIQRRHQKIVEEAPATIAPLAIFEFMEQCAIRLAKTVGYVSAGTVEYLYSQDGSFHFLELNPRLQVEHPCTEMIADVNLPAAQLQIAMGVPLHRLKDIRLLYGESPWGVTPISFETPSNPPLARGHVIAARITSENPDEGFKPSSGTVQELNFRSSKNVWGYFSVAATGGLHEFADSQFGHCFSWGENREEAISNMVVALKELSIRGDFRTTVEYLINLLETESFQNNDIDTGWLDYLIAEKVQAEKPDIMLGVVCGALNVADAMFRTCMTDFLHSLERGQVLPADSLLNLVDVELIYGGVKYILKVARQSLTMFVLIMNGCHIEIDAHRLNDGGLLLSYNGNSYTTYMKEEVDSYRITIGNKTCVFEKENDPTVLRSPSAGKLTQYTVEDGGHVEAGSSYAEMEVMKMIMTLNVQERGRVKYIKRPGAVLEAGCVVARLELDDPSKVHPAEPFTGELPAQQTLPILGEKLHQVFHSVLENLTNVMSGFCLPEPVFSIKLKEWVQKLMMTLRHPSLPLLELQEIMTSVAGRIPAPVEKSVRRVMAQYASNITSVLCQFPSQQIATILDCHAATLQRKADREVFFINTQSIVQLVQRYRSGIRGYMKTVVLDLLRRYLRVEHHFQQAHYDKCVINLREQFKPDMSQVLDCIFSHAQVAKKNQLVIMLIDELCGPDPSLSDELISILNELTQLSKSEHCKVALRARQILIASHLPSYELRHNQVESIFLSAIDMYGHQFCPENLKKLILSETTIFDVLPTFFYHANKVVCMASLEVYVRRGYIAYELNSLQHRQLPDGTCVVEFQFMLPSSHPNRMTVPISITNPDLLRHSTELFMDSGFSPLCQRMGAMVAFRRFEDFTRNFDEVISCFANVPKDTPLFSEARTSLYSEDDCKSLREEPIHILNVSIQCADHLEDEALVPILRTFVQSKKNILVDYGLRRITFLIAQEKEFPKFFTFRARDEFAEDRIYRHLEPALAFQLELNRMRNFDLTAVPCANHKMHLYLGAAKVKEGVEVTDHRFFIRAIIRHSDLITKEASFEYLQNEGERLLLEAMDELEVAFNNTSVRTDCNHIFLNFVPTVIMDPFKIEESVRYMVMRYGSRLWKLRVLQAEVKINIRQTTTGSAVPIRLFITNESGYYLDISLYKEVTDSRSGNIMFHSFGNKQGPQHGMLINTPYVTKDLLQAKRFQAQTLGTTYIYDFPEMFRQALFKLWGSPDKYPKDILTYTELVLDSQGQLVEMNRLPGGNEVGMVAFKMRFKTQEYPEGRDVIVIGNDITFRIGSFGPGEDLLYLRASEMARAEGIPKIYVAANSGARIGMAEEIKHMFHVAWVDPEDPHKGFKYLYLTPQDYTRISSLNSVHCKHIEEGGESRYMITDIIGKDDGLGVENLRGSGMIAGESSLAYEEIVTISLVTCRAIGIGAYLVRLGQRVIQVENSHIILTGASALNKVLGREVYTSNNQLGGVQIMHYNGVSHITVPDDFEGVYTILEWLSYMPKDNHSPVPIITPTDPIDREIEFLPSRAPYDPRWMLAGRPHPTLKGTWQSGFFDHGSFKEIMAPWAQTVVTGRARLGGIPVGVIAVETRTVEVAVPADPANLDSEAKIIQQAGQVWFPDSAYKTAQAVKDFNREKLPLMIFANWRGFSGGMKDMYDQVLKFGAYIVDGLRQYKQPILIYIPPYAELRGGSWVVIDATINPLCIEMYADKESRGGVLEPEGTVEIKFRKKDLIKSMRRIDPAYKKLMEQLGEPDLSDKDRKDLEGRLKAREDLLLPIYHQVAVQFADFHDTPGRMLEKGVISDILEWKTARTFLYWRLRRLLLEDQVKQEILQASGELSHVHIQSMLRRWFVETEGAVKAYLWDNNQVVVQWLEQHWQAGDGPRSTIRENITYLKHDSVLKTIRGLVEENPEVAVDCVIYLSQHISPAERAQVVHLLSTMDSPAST

SMILES	IC50 [µM]
COc1ccccc1[C@H](Cn1c(=O)n(C2(C(=O)O)CC2)c(=O)c2c(C)c(Br)sc21)OC1CCOCC1 [Example 29]	< 0.01
COc1ccccc1[C@H](Cn1c(=O)n(C2(C(=O)O)CCC2)c(=O)c2c(C)c(Br)sc21)OC1CCOCC1 [Example 31]	< 0.01
COc1ccccc1[C@H](Cn1c(=O)n(C2(C(=O)O)CC2)c(=O)c2c(C)c(-c3ncco3)sc21)OC1CCOCC1 [Example 33]	< 0.01
COc1ccccc1C(Cn1c(=O)n(C2(C(=O)O)CCCC2)c(=O)c2c(C)c(-c3ncco3)sc21)OC1CCOCC1 (stereo not drawn) [Example 36]	< 0.01
COc1ccccc1C(Cn1c(=O)n(C2(C(=O)O)CCC2)c(=O)c2c(C)c(-c3ncco3)sc21)OC1CCOCC1 (stereo not drawn) [Example 37]	< 0.01
COc1ccccc1[C@H](Cn1c(=O)n(C(C)(C)C(=O)O)c(=O)c2c(C)c(-c3ncco3)sc21)OC1CCOCC1 [Example 38]	< 0.01

same assay, conditions: ND630 versus RJ compounds; isoform not given; read-out: IC50 (μM) ND630/RJ-cmps(%)

SMILES	IC50 [µM]
COc1ccccc1[C@H](Cn1c(=O)n(C2(C(=O)O)CC2)c(=O)c2c(C)c(Br)sc21)OC1CCOCC1 [Example 29]	0.003 to 0.005
COc1ccccc1[C@H](Cn1c(=O)n(C2(C(=O)O)CCC2)c(=O)c2c(C)c(Br)sc21)OC1CCOCC1 [Example 31]	0.003 to 0.005
COc1ccccc1[C@H](Cn1c(=O)n(C2(C(=O)O)CC2)c(=O)c2c(C)c(-c3ncco3)sc21)OC1CCOCC1 [Example 33]	0.003 to 0.005
COc1ccccc1C(Cn1c(=O)n(C2(C(=O)O)CCCC2)c(=O)c2c(C)c(-c3ncco3)sc21)OC1CCOCC1 (stereo not drawn) [Example 36]	0.003 to 0.005
COc1ccccc1C(Cn1c(=O)n(C2(C(=O)O)CCC2)c(=O)c2c(C)c(-c3ncco3)sc21)OC1CCOCC1 (stereo not drawn) [Example 37]	0.005 to 0.01
COc1ccccc1[C@H](Cn1c(=O)n(C(C)(C)C(=O)O)c(=O)c2c(C)c(-c3ncco3)sc21)OC1CCOCC1 [Example 38]	0.005 to 0.01

test system: HepG2; experiment: EC50 in HepG2; type: cell-based; conditions: HepG2; read-out: EC50 (μM) HepG2

SMILES	EC50 [µM]
COc1ccccc1[C@H](Cn1c(=O)n(C2(C(=O)O)CC2)c(=O)c2c(C)c(Br)sc21)OC1CCOCC1 [Example 29]	0.01 to 0.1
COc1ccccc1[C@H](Cn1c(=O)n(C2(C(=O)O)CCC2)c(=O)c2c(C)c(Br)sc21)OC1CCOCC1 [Example 31]	0.01 to 0.1
COc1ccccc1[C@H](Cn1c(=O)n(C2(C(=O)O)CC2)c(=O)c2c(C)c(-c3ncco3)sc21)OC1CCOCC1 [Example 33]	0.01 to 0.1
COc1ccccc1C(Cn1c(=O)n(C2(C(=O)O)CCCC2)c(=O)c2c(C)c(-c3ncco3)sc21)OC1CCOCC1 (stereo not drawn) [Example 36]	0.01 to 0.1
COc1ccccc1C(Cn1c(=O)n(C2(C(=O)O)CCC2)c(=O)c2c(C)c(-c3ncco3)sc21)OC1CCOCC1 (stereo not drawn) [Example 37]	0.01 to 0.1
COc1ccccc1[C@H](Cn1c(=O)n(C(C)(C)C(=O)O)c(=O)c2c(C)c(-c3ncco3)sc21)OC1CCOCC1 [Example 38]	0.01 to 0.1

same assay, conditions: ND630 versus RJ compounds; read-out: EC50 (μM) ND630/RJ-cmps(%)

SMILES	EC50 [µM]
COc1ccccc1[C@H](Cn1c(=O)n(C2(C(=O)O)CC2)c(=O)c2c(C)c(Br)sc21)OC1CCOCC1 [Example 29]	0.1 to 1
COc1ccccc1[C@H](Cn1c(=O)n(C2(C(=O)O)CCC2)c(=O)c2c(C)c(Br)sc21)OC1CCOCC1 [Example 31]	> 1
COc1ccccc1[C@H](Cn1c(=O)n(C2(C(=O)O)CC2)c(=O)c2c(C)c(-c3ncco3)sc21)OC1CCOCC1 [Example 33]	> 1
COc1ccccc1C(Cn1c(=O)n(C2(C(=O)O)CCCC2)c(=O)c2c(C)c(-c3ncco3)sc21)OC1CCOCC1 (stereo not drawn) [Example 36]	> 1
COc1ccccc1C(Cn1c(=O)n(C2(C(=O)O)CCC2)c(=O)c2c(C)c(-c3ncco3)sc21)OC1CCOCC1 (stereo not drawn) [Example 37]	> 1
COc1ccccc1[C@H](Cn1c(=O)n(C(C)(C)C(=O)O)c(=O)c2c(C)c(-c3ncco3)sc21)OC1CCOCC1 [Example 38]	> 1

test system: MDA-MB-468; experiment: EC50 in MDA-MB-468; type: cell-based; conditions: MDA-MB-468; read-out: EC50 (μM) MDA-MB-468

SMILES	EC50 [µM]
COc1ccccc1[C@H](Cn1c(=O)n(C2(C(=O)O)CC2)c(=O)c2c(C)c(Br)sc21)OC1CCOCC1 [Example 29]	> 10
COc1ccccc1[C@H](Cn1c(=O)n(C2(C(=O)O)CCC2)c(=O)c2c(C)c(Br)sc21)OC1CCOCC1 [Example 31]	> 10
COc1ccccc1[C@H](Cn1c(=O)n(C2(C(=O)O)CC2)c(=O)c2c(C)c(-c3ncco3)sc21)OC1CCOCC1 [Example 33]	1 to 10
COc1ccccc1C(Cn1c(=O)n(C2(C(=O)O)CCCC2)c(=O)c2c(C)c(-c3ncco3)sc21)OC1CCOCC1 (stereo not drawn) [Example 36]	> 10
COc1ccccc1C(Cn1c(=O)n(C2(C(=O)O)CCC2)c(=O)c2c(C)c(-c3ncco3)sc21)OC1CCOCC1 (stereo not drawn) [Example 37]	> 10
COc1ccccc1[C@H](Cn1c(=O)n(C(C)(C)C(=O)O)c(=O)c2c(C)c(-c3ncco3)sc21)OC1CCOCC1 [Example 38]	> 10

test system: A549; experiment: EC50 in A549; type: cell-based; conditions: A549; read-out: EC50 (μM) A549

SMILES	EC50 [µM]
COc1ccccc1[C@H](Cn1c(=O)n(C2(C(=O)O)CC2)c(=O)c2c(C)c(Br)sc21)OC1CCOCC1 [Example 29]	0.5 to 1
COc1ccccc1[C@H](Cn1c(=O)n(C2(C(=O)O)CCC2)c(=O)c2c(C)c(Br)sc21)OC1CCOCC1 [Example 31]	< 0.5
COc1ccccc1[C@H](Cn1c(=O)n(C2(C(=O)O)CC2)c(=O)c2c(C)c(-c3ncco3)sc21)OC1CCOCC1 [Example 33]	< 0.5
COc1ccccc1C(Cn1c(=O)n(C2(C(=O)O)CCCC2)c(=O)c2c(C)c(-c3ncco3)sc21)OC1CCOCC1 (stereo not drawn) [Example 36]	0.5 to 1
COc1ccccc1C(Cn1c(=O)n(C2(C(=O)O)CCC2)c(=O)c2c(C)c(-c3ncco3)sc21)OC1CCOCC1 (stereo not drawn) [Example 37]	< 0.5
COc1ccccc1[C@H](Cn1c(=O)n(C(C)(C)C(=O)O)c(=O)c2c(C)c(-c3ncco3)sc21)OC1CCOCC1 [Example 38]	< 0.5

From US10995099B2, “Compounds and their uses as ACC inhibitors” (NANJING RUIJIE PHARMATECH CO., LTD., priority 2017, dated 2021)
